Source: patent US9259401B2 (priority 2011, dated 2016)
Where two headings read alike, the source gives them in different places.

Key:
mice = settings: cited from earlier work
[1] = tested on: AC activity and c-AMP levels; settings: platelet and various brain regions, CUMS rats; cited from earlier work
[2] = Comparative bioavailability study, curcumin in plasma by HPLC; type: in vivo, human; settings: for AUC(0-inf) / AUC(0-t) / Cmax / Tmax / concentration at 0 hr / concentration at 1 hr / concentration at 2 hr: human, plasma, po, 1 gm
Method: The bioavailability study was conducted at Amala Cancer Institute, Thrissur, Kerala on a request from the applicant. Twelve healthy subjects were recruited for the purpose of the study. […] The study design chosen was a balanced, open label, two-treatment, two-period, single dose, bioavailability study.
12 Subject were recruited for the study and were asked to avoid consumption of food containing rich turmeric powder or extract for 24 hours preceding each period. […] The following supplements were used for the purpose of the study:
Each of the supplements were administered with 240 ml water in each period.
The study design is open label, two-treatment, two-period, single dose, bioavailability study. […] Subjects were asked to avoid consumption of food containing rich turmeric powder or extract for 24 hours preceding each period. […] There was a washout period of at least 2 weeks between the doses.
Blood was drawn from each subject just prior to dosing and at 1, 2, 4, 6, 8, and 24 hours post-dose. The total blood loss for each subject was approximately 70 ml and there were totally 14 blood samples of 5 ml each time point throughout the study.
The primary efficacy variables were measured in this study were Cmax, AUCO-t and AUCO-∞ and the secondary efficacy variable were as follows Tmax, T½ and Kel. The statistical evaluation was done by Winnonlin Software 5.0.1 version. […] Tmax and T½ were also be recorded and compared for the two products.
Preparation of Sample (Spiked with Standard Solution E): The frozen plasma samples were allowed to attain the room temperature. 1000 μl of the plasma sample was pipetted out and spiked with 100 μl of spiking standard solution E. This solution was vortex for 1 minute and 3.0 ml ethyl acetate (HPLC Grade) was added to the above solutions. The solution was vortex again for 1 minute with the aid of cyclomixer and allowed to settle down at room temperature.
1.5 ml of the upper ethyl acetate layer was pipetted out and evaporated to dryness using vacuum. The dried sample was dissolved in 600 μl of methanol (HPLC Grade) using vortex mixer. This solution was filtered by 0.2 micron membrane filter paper. 100 μl of these filtered solution was injected in HPLC (Waters Alliance System with 2996 PDA detector in isocratic mode). The column used was LiChrospher 100 RP-18 (250×4.6 mm 5 μM particle size) with methanol as the mobile phase and the detection wavelength was 420 nm. To identify and quantized curcuminoids in plasma the chromatographic peaks were compared with standard solution.

[3] = 1 gm curcuminoids oral, read-out: Geometric Mean plasma concentration
[4] = 1 gm curcuminoids oral, read-out: Max plasma concentration
[5] = 1 gm curcuminoids oral, read-out: Mean plasma concentration
[6] = 1 gm curcuminoids oral, read-out: Median plasma concentration

Q: What does the source list for `COc1cc(C=CC(=O)CC(=O)C=Cc2ccc(O)c(OC)c2)ccc1O` [Curcumin, 1,7-bis(4-hydroxy-3-methoxyphenyl)-1,6-heptadien-3,5-dione]?
A: Immobility period (mice): inhibited the immobility period; AC activity and c-AMP levels [1]: enhanced AC activity and c-AMP levels; AUCINF, Max ([2]; 1 gm curcuminoids oral): 87.74 ng·h/mL; AUCINF, Min ([2]; 1 gm curcuminoids oral): 76.09 ng·h/mL; AUCT, Max ([2]; 1 gm curcuminoids oral): 198.27 ng·h/mL; AUCT, Min ([2]; 1 gm curcuminoids oral): 31.24 ng·h/mL; Cmax, Max ([2]; 1 gm curcuminoids oral): 36.11 ng/mL; Cmax, Min ([2]; 1 gm curcuminoids oral): 2.48 ng/mL; Thalf, Geometric Mean ([2]; 1 gm curcuminoids oral): 7.066 h; Thalf, Max ([2]; 1 gm curcuminoids oral): 11.39 h; Thalf, Mean ([2]; 1 gm curcuminoids oral): 7.516 h; Thalf, Median ([2]; 1 gm curcuminoids oral): 5.95 h; Thalf, Min ([2]; 1 gm curcuminoids oral): 5.21 h; Tmax, Max ([2]; 1 gm curcuminoids oral): 24.00 h; Tmax, Min ([2]; 1 gm curcuminoids oral): 1.00 h; AUCINF, Mean (mean AUC) ([2]; 1 gm curcuminoids oral, listed as Curcumin Extract Powder (min 95% Curcuminoids)): 80.433 ng·h/mL; AUC(0-inf) ([2]; 1 gm curcuminoids oral, read-out: AUCINF, Geometric Mean): 80.3 ng·h/mL; AUC(0-inf) ([2]; 1 gm curcuminoids oral, read-out: AUCINF, Mean (mean AUC)): 80.4 ng·h/mL; AUC(0-inf) ([2]; 1 gm curcuminoids oral, read-out: AUCINF, Median): 77.5 ng·h/mL; AUC(0-t) ([2]; 1 gm curcuminoids oral, read-out: AUCT, Geometric Mean): 81 ng·h/mL; AUC(0-t) ([2]; 1 gm curcuminoids oral, read-out: AUCT, Mean): 98.8 ng·h/mL; AUC(0-t) ([2]; 1 gm curcuminoids oral, read-out: AUCT, Median): 77.8 ng·h/mL; Cmax ([2]; 1 gm curcuminoids oral, read-out: Cmax, Geometric Mean): 10.5 ng/mL; Cmax ([2]; 1 gm curcuminoids oral, read-out: Cmax, Mean): 13.3 ng/mL; Cmax ([2]; 1 gm curcuminoids oral, read-out: Cmax, Median): 10.3 ng/mL; Tmax ([2]; 1 gm curcuminoids oral, read-out: Tmax, Geometric Mean): 4.06 h; Tmax ([2]; 1 gm curcuminoids oral, read-out: Tmax, Mean): 8.25 h; Tmax ([2]; 1 gm curcuminoids oral, read-out: Tmax, Median): 3 h; AUC(0-inf) ([2]; individual subjects, 1 gm curcuminoids oral, read-out: AUCINF): 76.1 ng·h/mL; concentration at 0 hr ([2]; time 0 hr (prior to dosing), 1 gm curcuminoids oral, read-out: Mean plasma concentration): 0 ng/mL; concentration at 0 hr ([2]; time 0.00 hr (prior to dosing), individual subjects, single oral dose equivalent to 1 gm curcuminoids, read-out: Individual plasma concentration): 0 ng/mL; concentration at 0 hr ([2]; time 0 hr, 1 gm curcuminoids oral, read-out: Geometric Mean plasma concentration): 0 ng/mL; concentration at 0 hr ([2]; time 0 hr, 1 gm curcuminoids oral, read-out: Max plasma concentration): 0 ng/mL; concentration at 0 hr ([2]; time 0 hr, 1 gm curcuminoids oral, read-out: Median plasma concentration): 0 ng/mL; concentration at 0 hr ([2]; time 0 hr, 1 gm curcuminoids oral, read-out: Min plasma concentration): 0 ng/mL; concentration at 1 hr [2, 3]: 1.58 ng/mL; concentration at 1 hr [2, 4]: 20.6 ng/mL; concentration at 1 hr [2, 5]: 5.46 ng/mL; concentration at 1 hr [2, 6]: 1.66 ng/mL; concentration at 1 hr ([2]; 1 gm curcuminoids oral, read-out: Min plasma concentration): 0.05 ng/mL; concentration at 2 hr [2, 3]: 13.5 ng/mL; concentration at 2 hr [2, 4]: 19.8 ng/mL; concentration at 2 hr [2, 5]: 14.4 ng/mL; concentration at 2 hr [2, 6]: 14.9 ng/mL
